From ChEMBL document CHEMBL1909046, “DrugMatrix in vitro pharmacology data”

Legend:
[1] = target: Sodium-dependent dopamine transporter (Homo sapiens, UniProt Q01959); test: DRUGMATRIX: Dopamine Transporter radioligand binding (ligand: [125I] RTI-55); assay type: cell membranes, CHO-K1, Membrane; conditions: Not Active = under 50% inhibition at 10 µM
[2] = DRUGMATRIX: Tumor Necrosis Factor (TNF), Non-Selective radioligand binding (ligand: [125I] TNF-alpha); assay type: cell membranes, Membrane; conditions: u-937; Not Active = under 50% inhibition at 10 µM
[3] = target: Platelet-activating factor receptor (Homo sapiens, UniProt P25105); assay type: tissue-based; further: in other assays of this panel Not Active means under 50% inhibition at 10 µM
[4] = target: T1, Cytochrome P450 2A6 (Homo sapiens, UniProt P11509); conditions: bti-tn-5b1-4; further: in other assays of this panel Not Active means under 50% inhibition at 10 µM
T1 sequence (P11509 whole entry): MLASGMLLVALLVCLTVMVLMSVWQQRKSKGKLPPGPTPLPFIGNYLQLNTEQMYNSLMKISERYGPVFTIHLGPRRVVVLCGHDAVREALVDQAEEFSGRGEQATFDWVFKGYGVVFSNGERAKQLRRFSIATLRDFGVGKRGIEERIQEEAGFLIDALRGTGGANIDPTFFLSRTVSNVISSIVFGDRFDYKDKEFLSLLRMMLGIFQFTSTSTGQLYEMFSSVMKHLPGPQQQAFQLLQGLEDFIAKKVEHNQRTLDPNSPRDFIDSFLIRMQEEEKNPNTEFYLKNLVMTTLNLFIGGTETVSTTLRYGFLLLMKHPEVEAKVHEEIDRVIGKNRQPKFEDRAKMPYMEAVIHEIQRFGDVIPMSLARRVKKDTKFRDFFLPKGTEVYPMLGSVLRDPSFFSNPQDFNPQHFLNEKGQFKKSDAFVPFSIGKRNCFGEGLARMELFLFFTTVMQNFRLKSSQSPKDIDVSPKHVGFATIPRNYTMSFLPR

[5] = target: Sodium-dependent noradrenaline transporter (Homo sapiens, UniProt P23975); test: DRUGMATRIX: Norepinephrine Transporter radioligand binding (ligand: [125I] RTI-55); assay type: cell membranes, MDCK, Membrane; conditions: Not Active = under 50% inhibition at 10 µM
[6] = target: 5-hydroxytryptamine receptor 2B (Homo sapiens, UniProt P41595); assay type: cell membranes, CHO-K1, Membrane; further: in other assays of this panel Not Active means under 50% inhibition at 10 µM
[7] = target: T2, Leukotriene C4 synthase (Cavia porcellus, UniProt A6XA80); assay type: tissue-based, Lung;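 further: enzyme inhibition assay of leukotriene C4 synthase, using LTA4 as the substrate; in other assays of this panel Not Active means under 50% inhibition at 10 µM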
T2 sequence (A6XA80 whole entry): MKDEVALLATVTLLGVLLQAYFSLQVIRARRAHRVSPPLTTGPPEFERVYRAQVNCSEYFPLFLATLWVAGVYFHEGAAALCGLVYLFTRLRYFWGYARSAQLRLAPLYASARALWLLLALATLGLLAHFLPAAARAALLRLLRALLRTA

Chain of Sodium-dependent dopamine transporter (Q01959 whole entry): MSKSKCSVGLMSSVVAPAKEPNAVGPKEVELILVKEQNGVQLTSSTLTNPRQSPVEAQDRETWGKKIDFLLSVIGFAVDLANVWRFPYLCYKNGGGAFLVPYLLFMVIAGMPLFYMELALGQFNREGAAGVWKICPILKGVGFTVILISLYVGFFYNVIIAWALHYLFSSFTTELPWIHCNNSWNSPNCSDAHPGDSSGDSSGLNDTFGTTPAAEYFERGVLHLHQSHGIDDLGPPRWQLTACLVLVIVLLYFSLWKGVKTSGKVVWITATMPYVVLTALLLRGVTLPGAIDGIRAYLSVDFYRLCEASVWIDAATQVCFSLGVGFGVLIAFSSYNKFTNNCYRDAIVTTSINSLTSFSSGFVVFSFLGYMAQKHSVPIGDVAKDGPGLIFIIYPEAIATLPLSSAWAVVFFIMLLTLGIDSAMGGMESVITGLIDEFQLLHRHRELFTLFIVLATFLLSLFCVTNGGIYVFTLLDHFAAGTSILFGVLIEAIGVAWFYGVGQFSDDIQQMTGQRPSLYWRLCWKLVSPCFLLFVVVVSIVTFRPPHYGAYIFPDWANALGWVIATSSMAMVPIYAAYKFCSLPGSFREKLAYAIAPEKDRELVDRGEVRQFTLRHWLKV
Chain of Platelet-activating factor receptor (P25105 whole entry): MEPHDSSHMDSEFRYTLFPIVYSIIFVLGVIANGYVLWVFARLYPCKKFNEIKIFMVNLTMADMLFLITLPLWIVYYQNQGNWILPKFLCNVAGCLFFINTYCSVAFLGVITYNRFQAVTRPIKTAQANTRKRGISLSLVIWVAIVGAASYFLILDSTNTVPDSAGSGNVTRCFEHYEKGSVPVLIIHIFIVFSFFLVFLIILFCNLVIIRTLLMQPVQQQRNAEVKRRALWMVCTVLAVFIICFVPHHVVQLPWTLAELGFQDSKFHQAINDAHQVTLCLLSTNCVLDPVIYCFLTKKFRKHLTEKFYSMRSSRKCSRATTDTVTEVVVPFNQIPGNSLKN
Chain of 5-hydroxytryptamine receptor 2B (P41595 whole entry): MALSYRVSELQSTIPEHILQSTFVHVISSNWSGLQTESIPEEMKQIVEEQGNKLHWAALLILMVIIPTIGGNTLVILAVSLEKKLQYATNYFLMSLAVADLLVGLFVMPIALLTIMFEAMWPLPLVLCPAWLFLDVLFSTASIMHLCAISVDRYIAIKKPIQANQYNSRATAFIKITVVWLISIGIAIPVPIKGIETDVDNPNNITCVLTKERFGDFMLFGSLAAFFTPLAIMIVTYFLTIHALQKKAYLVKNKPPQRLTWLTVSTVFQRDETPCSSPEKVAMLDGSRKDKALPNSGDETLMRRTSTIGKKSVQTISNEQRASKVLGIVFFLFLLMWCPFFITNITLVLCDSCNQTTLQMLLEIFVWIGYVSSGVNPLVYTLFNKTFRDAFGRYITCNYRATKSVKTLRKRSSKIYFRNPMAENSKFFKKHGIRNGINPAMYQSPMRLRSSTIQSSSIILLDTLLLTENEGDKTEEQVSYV
Chain of Sodium-dependent noradrenaline transporter (P23975 whole entry): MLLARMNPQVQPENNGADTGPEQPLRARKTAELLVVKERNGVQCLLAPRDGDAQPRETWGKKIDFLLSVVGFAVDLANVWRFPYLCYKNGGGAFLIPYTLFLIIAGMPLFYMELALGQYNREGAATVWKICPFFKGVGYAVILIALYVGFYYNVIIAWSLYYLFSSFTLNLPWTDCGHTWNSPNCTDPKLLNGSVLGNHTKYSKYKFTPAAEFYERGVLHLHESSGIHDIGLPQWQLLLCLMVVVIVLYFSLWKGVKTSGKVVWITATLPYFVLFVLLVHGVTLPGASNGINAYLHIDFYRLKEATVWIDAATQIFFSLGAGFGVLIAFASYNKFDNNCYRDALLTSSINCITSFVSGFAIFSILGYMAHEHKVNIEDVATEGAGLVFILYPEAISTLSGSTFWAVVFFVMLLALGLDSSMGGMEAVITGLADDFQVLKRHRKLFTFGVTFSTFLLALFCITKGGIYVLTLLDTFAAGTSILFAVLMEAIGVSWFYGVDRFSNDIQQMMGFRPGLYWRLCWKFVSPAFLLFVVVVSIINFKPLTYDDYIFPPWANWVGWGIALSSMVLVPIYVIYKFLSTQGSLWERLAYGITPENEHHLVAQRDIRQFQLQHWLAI

| Compound | IC50 ([1]; cho-k1) | IC50 [2] | Ki [2] | IC50 [3] | IC50 [4] | Ki [4] | IC50 ([5]; mdck) | IC50 ([6]; cho-k1) | IC50 [7] | IC50 ([6]; read-out: IC50) | Ki ([6]; read-out: Ki) | Ki ([1]; cho-k1) | Ki [3] | Ki ([5]; mdck) | Ki ([6]; cho-k1) | Ki [7] | IC50 ([1]; read-out: IC50) | Ki ([1]; read-out: Ki) | IC50 ([5]; read-out: IC50) | Ki ([5]; read-out: Ki) |
| --- | --- | --- | --- | --- | --- | --- | --- | --- | --- | --- | --- | --- | --- | --- | --- | --- | --- | --- | --- | --- |
| Cc1nnc2n1-c1ccc(Cl)cc1C(c1ccccc1)=NC2 [ALPRAZOLAM] | Not Active | Not Active | Not Active | Not Active | Not Active | Not Active | Not Active | Not Active | Not Active | – | – | – | – | – | – | – | – | – | – | – |
| COC(=O)CCc1ccc(OCC(O)CNC(C)C)cc1 (centres undefined) [ESMOLOL] | Not Active | Not Active | Not Active | Not Active | Not Active | Not Active | Not Active | Not Active | Not Active | – | – | – | – | – | – | – | – | – | – | – |
| COc1ccc2cc3[n+](cc2c1OC)CCc1cc2c(cc1-3)OCO2.[Cl-] [BERBERINE CHLORIDE] | Not Active | Not Active | Not Active | Not Active | Not Active | Not Active | Not Active | – | Not Active | 3.44 µM | 2.19 µM | – | – | – | – | – | – | – | – | – |
| NC(=O)C[S+]([O-])C(c1ccccc1)c1ccccc1 (centres undefined) [MODAFINIL] | – | Not Active | Not Active | Not Active | Not Active | Not Active | Not Active | Not Active | Not Active | – | – | – | – | – | – | – | – | – | – | – |
| CC(C)=CCC/C(C)=C/CO [GERANIOL] | Not Active | Not Active | Not Active | Not Active | – | – | Not Active | Not Active | Not Active | – | – | – | – | – | – | – | – | – | – | – |
| NCCCC(O)(P(=O)(O)O)P(=O)(O)O [ALENDRONIC ACID] | Not Active | Not Active | Not Active | Not Active | Not Active | Not Active | Not Active | Not Active | Not Active | – | – | – | – | – | – | – | – | – | – | – |
| C[C@@H]1CC[C@@]2(OC1)O[C@H]1[C@@H](O)[C@H]3[C@@H]4CC[C@H]5C[C@@H](O[C@@H]6O[C@H](CO)[C@H](O[C@@H]7O[C@H](CO)C(O)[C@H](O[C@@H]8OC[C@@H](O)[C@H](O)[C@H]8O)[C@H]7O[C@@H]7O[C@H](CO)[C@H](O)[C@H](O[C@@H]8O[C@H](CO)[C@@H](O)[C@H](O)[C@H]8O)[C@H]7O)[C@H](O)[C@H]6O)[C@H](O)C[C@]5(C)[C@H]4CC[C@]3(C)[C@H]1[C@@H]2C (some centres undefined) [DIGITONIN] | Not Active | Not Active | Not Active | Not Active | Not Active | Not Active | Not Active | Not Active | Not Active | – | – | – | – | – | – | – | – | – | – | – |
| O=C1CN=C(c2ccccc2Cl)c2cc([N+](=O)[O-])ccc2N1 [CLONAZEPAM] | Not Active | Not Active | Not Active | Not Active | Not Active | Not Active | Not Active | Not Active | Not Active | – | – | – | – | – | – | – | – | – | – | – |
| AURANOFIN | Not Active | Not Active | Not Active | Not Active | Not Active | Not Active | Not Active | Not Active | Not Active | – | – | Not Active | Not Active | Not Active | Not Active | Not Active | – | – | – | – |
| COC(=O)Nc1nc2ccc(C(=O)c3cccs3)cc2[nH]1 [NOCODAZOLE] | – | Not Active | Not Active | Not Active | Not Active | Not Active | Not Active | – | Not Active | 20.2 µM | 12.8 µM | – | – | – | – | – | 6.23 µM | 4.95 µM | – | – |
| C[C@H]1O[C@@H](n2cc(F)c(=O)[nH]c2=O)[C@H](O)[C@@H]1O [DOXIFLURIDINE] | Not Active | Not Active | Not Active | Not Active | Not Active | Not Active | Not Active | Not Active | Not Active | – | – | – | – | – | – | – | – | – | – | – |
| CC(C(=O)O)c1ccc2oc(-c3ccc(Cl)cc3)nc2c1 (centres undefined) [BENOXAPROFEN] | Not Active | Not Active | Not Active | Not Active | Not Active | Not Active | Not Active | Not Active | Not Active | – | – | – | – | – | – | – | – | – | – | – |
| GADOPENTETATE DIMEGLUMINE | Not Active | Not Active | Not Active | Not Active | Not Active | Not Active | Not Active | Not Active | Not Active | – | – | Not Active | Not Active | Not Active | Not Active | Not Active | – | – | – | – |
| Nc1ccc2c3c(cccc13)C(=O)NC2=O | Not Active | Not Active | Not Active | Not Active | Not Active | Not Active | Not Active | Not Active | Not Active | – | – | – | – | – | – | – | – | – | – | – |
| C[n+]1ccccc1/C=N/O.[Cl-] [PRALIDOXIME CHLORIDE] | Not Active | Not Active | Not Active | Not Active | Not Active | Not Active | Not Active | Not Active | Not Active | – | – | – | – | – | – | – | – | – | – | – |
| NNc1nncc2ccccc12 [HYDRALAZINE] | Not Active | Not Active | Not Active | Not Active | Not Active | Not Active | Not Active | Not Active | Not Active | – | – | – | – | – | – | – | – | – | – | – |
| O=c1cnn([C@@H]2O[C@H](CO)[C@@H](O)[C@H]2O)c(=O)[nH]1 [6-AZAURIDINE] | Not Active | Not Active | Not Active | Not Active | Not Active | Not Active | Not Active | Not Active | Not Active | – | – | – | – | – | – | – | – | – | – | – |
| CC1(C)S[C@@H]2[C@H](NC(=O)[C@H](N)c3ccccc3)C(=O)N2[C@H]1C(=O)O [AMPICILLIN] | Not Active | Not Active | Not Active | Not Active | Not Active | Not Active | – | Not Active | Not Active | – | – | – | – | – | – | – | – | – | – | – |
| CC(=O)[C@@]1(O)CC[C@H]2[C@@H]3CCC4=CC(=O)CC[C@]4(C)[C@H]3CC[C@@]21C [HYDROXYPROGESTERONE] | – | Not Active | Not Active | Not Active | – | – | Not Active | Not Active | Not Active | – | – | – | – | – | – | – | 6.91 µM | 5.49 µM | – | – |
| Oc1c(Cl)cc(Cl)c(Cl)c1Cc1c(O)c(Cl)cc(Cl)c1Cl [HEXACHLOROPHENE] | Not Active | Not Active | Not Active | Not Active | Not Active | Not Active | Not Active | – | Not Active | – | – | – | – | – | – | – | – | – | – | – |
| CC(C)c1cccc(C(C)C)c1O [PROPOFOL] | Not Active | Not Active | Not Active | Not Active | – | – | – | – | Not Active | 5.5 µM | 3.5 µM | – | – | – | – | – | – | – | 9.39 µM | 9.32 µM |
| CC(=O)Oc1ccc(C(c2ccc(OC(C)=O)cc2)c2ccccn2)cc1 [BISACODYL] | – | Not Active | Not Active | Not Active | Not Active | Not Active | Not Active | Not Active | Not Active | – | – | – | – | – | – | – | – | – | – | – |
| COc1cc(N)c(Cl)cc1C(=O)NC1CCN(CCCOc2ccc(F)cc2)CC1OC (centres undefined) [CISAPRIDE] | Not Active | Not Active | Not Active | Not Active | Not Active | Not Active | Not Active | – | Not Active | – | – | – | – | – | – | – | – | – | – | – |
| CCCNCC(O)COc1ccccc1C(=O)CCc1ccccc1 (centres undefined) [PROPAFENONE] | – | Not Active | Not Active | Not Active | Not Active | Not Active | – | – | Not Active | – | – | – | – | – | – | – | – | – | – | – |
| CC(C)NCC(O)COc1cccc2[nH]ccc12 (centres undefined) [PINDOLOL] | Not Active | Not Active | Not Active | Not Active | – | – | Not Active | Not Active | Not Active | – | – | – | – | – | – | – | – | – | – | – |
| COc1cc([C@@H]2c3cc4c(cc3[C@@H](O[C@@H]3O[C@@H]5CO[C@@H](C)O[C@H]5[C@H](O)[C@H]3O)[C@H]3COC(=O)[C@H]23)OCO4)cc(OC)c1O [ETOPOSIDE] | Not Active | Not Active | Not Active | Not Active | – | – | Not Active | Not Active | Not Active | – | – | – | – | – | – | – | – | – | – | – |
| COc1ccc2c3c1O[C@H]1C[C@@H](O)C=C[C@@]31CCN(C)C2 [GALANTAMINE] | Not Active | Not Active | Not Active | Not Active | – | – | Not Active | Not Active | Not Active | – | – | – | – | – | – | – | – | – | – | – |
